Assay results published in article PMC4533885, “Mouse Mincle: Characterization as a Model for Human Mincle and Evolutionary Implications” (Molecules, 2015).

Molecular target: T1, mouse mincle (CLEC-4E) CRD, biotin-tagged (Mus musculus, UniProt Q9R0Q8)
T1 construct: gene Clec4e; minimal C-terminal carbohydrate-recognition domain (primers encode ACPLNWKHY... to ...PEISPLD) with C-terminal biotinylation tag GLNDIFEAQKIEWHE kept; immobilized on streptavidin wells
T1 sequence (Q9R0Q8 80-214): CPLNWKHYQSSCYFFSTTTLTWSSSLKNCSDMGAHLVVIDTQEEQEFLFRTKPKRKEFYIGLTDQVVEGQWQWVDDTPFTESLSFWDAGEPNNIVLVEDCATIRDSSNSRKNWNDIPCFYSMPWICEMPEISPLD
Assay: solid-phase competition with […]-Man-BSA reporter, CRD immobilized on streptavidin wells
Format: binding

Compound `OC[C@H]1O[C@H](O[C@H]2O[C@H](CO)[C@@H](O)[C@H](O)[C@H]2O)[C@H](O)[C@@H](O)[C@@H]1O` [trehalose] has a Ki of 540 ± 180 µM.
